Literature values in patent US20240401031A1, “Platform Using iPSC-Derived Cardiomyocytes Carrying Gene Variants as Models of Cardiac Disease and Drug-Response” (SRI INTERNATIONAL, priority 2021, published 2024).

Conditions: source CredibleMeds

SMILES | Risk (Torsade de Pointes)
CC[C@H]1OC(=O)[C@H](C)[C@@H](O[C@H]2C[C@@](C)(OC)[C@@H](O)[C@H](C)O2)[C@H](C)[C@@H](O[C@@H]2O[C@H](C)C[C@H](N(C)C)[C@H]2O)[C@](C)(OC)C[C@@H](C)C(=O)[C@H](C)[C@@H](O)[C@]1(C)O [Clarithromycin] | (KR)
Cc1c(OCC(F)(F)F)ccnc1C[S+]([O-])c1nc2ccccc2[nH]1 (centres unmarked) [Lansoprazole] | (CR)
